Test results: patent US10287297B2, “Epoxyazulene derivatives useful for treating cancer and diabetes” (The United States of America, as represented by the …, priority 2015, dated 2019)

Key:
Assay type in all cases: cell-based
M14 = assay: NCI 60 cell assay, melanoma M14; details: Homo sapiens, 48 h, drug exposure two days, SRB endpoint, read-out: GI-50 value
Procedure: (§1) Samples were tested in the standard National Cancer Institute 60-cell line protocol. First, they were tested against all 60 cell lines in a single final concentration of 10 micromolar. Then, they were separately tested in five 10-fold dilutions. The drug exposure was two days, with an SRB endpoint.

NCI-H322M = assay: NCI 60 cell assay, NSCLC NCI-H322M; details: Homo sapiens, 48 h, drug exposure two days, SRB endpoint, read-out: GI-50 value
Procedure: as §1

DU-145 = assay: NCI 60 cell assay, prostate DU-145; details: Homo sapiens, 48 h; DU-145 (prostate); drug exposure two days, SRB endpoint; read-out: GI-50 value
Procedure: as §1

HOP-92 = assay: NCI 60 cell assay, NSCLC HOP-92; details: Homo sapiens, 48 h; HOP-92 (NSCLC); drug exposure two days, SRB endpoint; read-out: GI-50 value
Procedure: as §1

HOP-62 = assay: NCI 60 cell assay, NSCLC HOP-62; details: Homo sapiens, 48 h; HOP-62 (NSCLC); drug exposure two days, SRB endpoint; read-out: GI-50 value
Procedure: as §1

HL-60(TB) = assay: NCI 60 cell assay, leukemia HL-60(TB); details: Homo sapiens, 48 h; HL-60(TB) (leukemia); drug exposure two days, SRB endpoint; read-out: GI-50 value
Procedure: as §1

EKVX = assay: NCI 60 cell assay, NSCLC EKVX; details: Homo sapiens, 48 h, drug exposure two days, SRB endpoint, read-out: GI-50 value
Procedure: as §1

SK-MEL-2 = assay: NCI 60 cell assay, melanoma SK-MEL-2; details: Homo sapiens, 48 h; SK-MEL-2 (melanoma); drug exposure two days, SRB endpoint; read-out: GI-50 value
Procedure: as §1

MCF7 = assay: NCI 60 cell assay, breast MCF7; details: Homo sapiens, 48 h, drug exposure two days, SRB endpoint, read-out: GI-50 value
Procedure: as §1

K-562 = assay: NCI 60 cell assay, leukemia K-562; details: Homo sapiens, K562, 48 h; K-562 (leukemia); drug exposure two days, SRB endpoint; read-out: GI-50 value
Procedure: as §1

CCRF-CEM = assay: NCI 60 cell assay, leukemia CCRF-CEM; details: Homo sapiens, 48 h, drug exposure two days, SRB endpoint, read-out: GI-50 value
Procedure: as §1

RPMI-8226 = assay: NCI 60 cell assay, leukemia RPMI-8226; details: Homo sapiens, 48 h; RPMI-8226 (leukemia); drug exposure two days, SRB endpoint; read-out: GI-50 value
Procedure: as §1

786-0 = assay: NCI 60 cell assay, renal 786-0; details: Homo sapiens, 48 h; 786-0 (renal); drug exposure two days, SRB endpoint; read-out: GI-50 value
Procedure: as §1

HCT-15 = assay: NCI 60 cell assay, colon HCT-15; details: Homo sapiens, 48 h; HCT-15 (colon); drug exposure two days, SRB endpoint; read-out: GI-50 value
Procedure: as §1

SN12C = assay: NCI 60 cell assay, renal SN12C; details: Homo sapiens, 48 h, drug exposure two days, SRB endpoint, read-out: GI-50 value
Procedure: as §1

SW-620 = assay: NCI 60 cell assay, colon SW-620; details: Homo sapiens, 48 h; SW-620 (colon); drug exposure two days, SRB endpoint; read-out: GI-50 value
Procedure: as §1

MDA-MB-231/ATCC = assay: NCI 60 cell assay, breast MDA-MB-231/ATCC; details: Homo sapiens, 48 h; MDA-MB-231/ATCC (breast); drug exposure two days, SRB endpoint; read-out: GI-50 value
Procedure: as §1

SNB-19 = assay: NCI 60 cell assay, CNS SNB-19; details: Homo sapiens, 48 h; SNB-19 (CNS); drug exposure two days, SRB endpoint; read-out: GI-50 value
Procedure: as §1

RXF 393 = assay: NCI 60 cell assay, renal RXF 393; details: Homo sapiens, 48 h; RXF 393 (renal); drug exposure two days, SRB endpoint; read-out: GI-50 value
Procedure: as §1

LOX IMVI = assay: NCI 60 cell assay, melanoma LOX IMVI; details: Homo sapiens, 48 h, drug exposure two days, SRB endpoint, read-out: GI-50 value
Procedure: as §1

HCT-116 = assay: NCI 60 cell assay, colon HCT-116; details: Homo sapiens, 48 h; HCT-116 (colon); drug exposure two days, SRB endpoint; read-out: GI-50 value
Procedure: as §1

PC-3 = assay: NCI 60 cell assay, prostate PC-3; details: Homo sapiens, 48 h; PC-3 (prostate); drug exposure two days, SRB endpoint; read-out: GI-50 value
Procedure: as §1

OVCAR-8 = assay: NCI 60 cell assay, ovarian OVCAR-8; details: Homo sapiens, 48 h; OVCAR-8 (ovarian); drug exposure two days, SRB endpoint; read-out: GI-50 value
Procedure: as §1

UO-31 = assay: NCI 60 cell assay, renal UO-31; details: Homo sapiens, 48 h; UO-31 (renal); drug exposure two days, SRB endpoint; read-out: GI-50 value
Procedure: as §1

OVCAR-3 = assay: NCI 60 cell assay, ovarian OVCAR-3; details: Homo sapiens, 48 h; OVCAR-3 (ovarian); drug exposure two days, SRB endpoint; read-out: GI-50 value
Procedure: as §1

SNB-75 = assay: NCI 60 cell assay, CNS SNB-75; details: Homo sapiens, 48 h; SNB-75 (CNS); drug exposure two days, SRB endpoint; read-out: GI-50 value
Procedure: as §1

NCI-H226 = assay: NCI 60 cell assay, NSCLC NCI-H226; details: Homo sapiens, 48 h, drug exposure two days, SRB endpoint, read-out: GI-50 value
Procedure: as §1

KM12 = assay: NCI 60 cell assay, colon KM12; details: Homo sapiens, 48 h, drug exposure two days, SRB endpoint, read-out: GI-50 value
Procedure: as §1

CC1=C2[C@@H](CC1)[C@]1(C)O[C@@](c3ccccc3)(C[C@H]1OC(=O)CO)[C@H]2OC(=O)C=Cc1ccccc1 [(Ir), (3aR,4S,5R,7R,8S)-5-(2-hydroxyacetoxy)-1,4-dimethyl-7-phenyl-2,3,3a,4,5,6,7,8-octahydro-4,7-epoxyazulen-8-yl cinnamate]
GI50 (M14): 17 µM
GI50 (NCI-H322M): 22 µM
GI50 (DU-145): 17 µM
GI50 (HOP-92): 14 µM
GI50 (HOP-62): 18 µM
GI50 (HL-60(TB)): 16 µM
GI50 (EKVX): 15 µM
GI50 (SK-MEL-2): 16 µM
GI50 (MCF7): 10 µM
GI50 (K-562): 16 µM
GI50 (CCRF-CEM): 20 µM
GI50 (RPMI-8226): 13 µM
GI50 (786-0): 14 µM
GI50 (HCT-15): 13 µM
GI50 (SN12C): 11 µM
GI50 (SW-620): 21 µM
GI50 (MDA-MB-231/ATCC): 19 µM
GI50 (SNB-19): 22 µM
GI50 (RXF 393): 0.027 µM
GI50 (LOX IMVI): 17 µM
GI50 (HCT-116): 15 µM
GI50 (PC-3): 10 µM
GI50 (OVCAR-8): 0.26 µM
GI50 (UO-31): 0.55 µM
GI50 (OVCAR-3): 15 µM
GI50 (SNB-75): 15 µM
GI50 (NCI-H226): 16 µM
GI50 (KM12): 16 µM
